The values below come from paper PMC4583814 (Nature neuroscience, 2015).

What all share (experiment): CRE-luciferase
Holding throughout (format): cell-based

One experiment concerns the target T1, Olfr491 (Mus musculus, UniProt Q8VG06).
T1 sequence (Q8VG06 1-310): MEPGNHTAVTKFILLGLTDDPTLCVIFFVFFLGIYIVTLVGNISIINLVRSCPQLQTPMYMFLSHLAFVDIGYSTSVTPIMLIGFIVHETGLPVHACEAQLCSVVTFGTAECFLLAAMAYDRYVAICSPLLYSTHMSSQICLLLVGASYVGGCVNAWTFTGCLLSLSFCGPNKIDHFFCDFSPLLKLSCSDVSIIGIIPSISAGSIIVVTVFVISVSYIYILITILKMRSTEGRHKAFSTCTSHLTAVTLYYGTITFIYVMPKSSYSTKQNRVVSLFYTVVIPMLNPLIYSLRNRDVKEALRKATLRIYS
The settings on record: Hana3A cells, 4 h, 37°C; agonist.

The next experiment has as its target T2, Olfr20 (Mus musculus, UniProt Q7TRX9).
T2 sequence (Q7TRX9 1-314): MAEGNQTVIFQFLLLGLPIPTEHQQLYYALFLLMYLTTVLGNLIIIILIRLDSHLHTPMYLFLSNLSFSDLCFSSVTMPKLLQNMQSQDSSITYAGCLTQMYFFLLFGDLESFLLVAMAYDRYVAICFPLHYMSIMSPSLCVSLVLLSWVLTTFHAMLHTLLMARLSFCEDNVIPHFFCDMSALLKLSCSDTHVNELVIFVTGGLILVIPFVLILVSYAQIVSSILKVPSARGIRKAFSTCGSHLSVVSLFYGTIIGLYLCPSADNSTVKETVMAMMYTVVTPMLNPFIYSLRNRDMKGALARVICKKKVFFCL
The settings on record: Hana3A cells, 4 h, 37°C; agonist.

A further experiment addresses T3, Olfr57 (Mus musculus, UniProt Q8VGU7).
T3 sequence (Q8VGU7 1-319): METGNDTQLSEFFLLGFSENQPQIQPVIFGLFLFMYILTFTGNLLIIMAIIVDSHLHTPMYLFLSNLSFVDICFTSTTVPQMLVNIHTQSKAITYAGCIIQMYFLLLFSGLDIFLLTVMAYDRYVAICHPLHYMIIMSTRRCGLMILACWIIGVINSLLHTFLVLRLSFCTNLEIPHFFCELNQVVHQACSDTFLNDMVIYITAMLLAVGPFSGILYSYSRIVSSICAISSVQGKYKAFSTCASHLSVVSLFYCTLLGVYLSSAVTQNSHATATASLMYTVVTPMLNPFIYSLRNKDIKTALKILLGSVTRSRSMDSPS
The settings on record: Hana3A cells, 4 h, 37°C; agonist.

Another experiment deals with T4, Olfr376 (Mus musculus, UniProt Q8VGI2).
T4 sequence (Q8VGI2 1-317): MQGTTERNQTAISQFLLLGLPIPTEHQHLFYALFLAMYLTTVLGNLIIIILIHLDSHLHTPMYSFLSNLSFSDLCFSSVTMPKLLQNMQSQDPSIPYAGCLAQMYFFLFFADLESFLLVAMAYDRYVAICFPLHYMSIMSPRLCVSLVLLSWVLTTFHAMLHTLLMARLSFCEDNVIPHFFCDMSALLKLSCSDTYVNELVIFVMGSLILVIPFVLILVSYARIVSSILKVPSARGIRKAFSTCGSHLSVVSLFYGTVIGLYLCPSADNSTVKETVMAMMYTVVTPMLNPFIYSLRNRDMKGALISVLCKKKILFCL
The settings on record: Hana3A cells, 4 h, 37°C; agonist.

The target of another experiment is T5, Olfr19 (Mus musculus, UniProt Q9JHB2).
T5 sequence (Q9JHB2 1-309): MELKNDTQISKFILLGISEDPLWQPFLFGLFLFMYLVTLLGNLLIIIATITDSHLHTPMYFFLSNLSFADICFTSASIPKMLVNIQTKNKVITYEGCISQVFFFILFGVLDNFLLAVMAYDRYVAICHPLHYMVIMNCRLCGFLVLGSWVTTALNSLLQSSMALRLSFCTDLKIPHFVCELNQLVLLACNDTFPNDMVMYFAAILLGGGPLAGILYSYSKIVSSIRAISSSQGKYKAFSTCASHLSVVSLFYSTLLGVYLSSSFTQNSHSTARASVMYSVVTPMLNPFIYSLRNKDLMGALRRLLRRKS
The settings on record: Hana3A cells, 10^–9 – 10^–3 M, 4 h, 37°C; agonist.

`CC1=NC(C)SC1C` (centres unmarked) [2,5–dihydro–2,4,5–trimethylthiazoline]: the “CRE-luciferase (Dual-Glo) reporter” value at Olfr491 was “Five of these TMT ORs (Olfr20, Olfr30, Olfr57, Olfr376, Olfr491)”; on Olfr20 it was “Five of these TMT ORs (Olfr20, Olfr30, Olfr57, Olfr376, Olfr491)”; on Olfr57, “Five of these TMT ORs (Olfr20, Olfr30, Olfr57, Olfr376, Olfr491)”; at Olfr376 it was “Five of these TMT ORs (Olfr20, Olfr30, Olfr57, Olfr376, Olfr491)”.

Regarding `CC(=O)c1ccccc1` [acetophenone], the EC50 entry on Olfr19 was “a newly identified acetophenone OR, Olfr19”.
